This is an account of results in ChEMBL document CHEMBL1125850, “Synthesis of substrate-based inhibitors of HMG CoA reductase” (Bioorg Med Chem Lett, 1991).

Active and inactive are the calls of the source. The rule behind the calls is not given here.

Format in all cases: microsomes
Common to all, as to conditions: Microsome

The target in assay [1] is T1, 3-hydroxy-3-methylglutaryl-coenzyme A reductase (Rattus norvegicus) (UniProt P51639).
T1 sequence (whole entry): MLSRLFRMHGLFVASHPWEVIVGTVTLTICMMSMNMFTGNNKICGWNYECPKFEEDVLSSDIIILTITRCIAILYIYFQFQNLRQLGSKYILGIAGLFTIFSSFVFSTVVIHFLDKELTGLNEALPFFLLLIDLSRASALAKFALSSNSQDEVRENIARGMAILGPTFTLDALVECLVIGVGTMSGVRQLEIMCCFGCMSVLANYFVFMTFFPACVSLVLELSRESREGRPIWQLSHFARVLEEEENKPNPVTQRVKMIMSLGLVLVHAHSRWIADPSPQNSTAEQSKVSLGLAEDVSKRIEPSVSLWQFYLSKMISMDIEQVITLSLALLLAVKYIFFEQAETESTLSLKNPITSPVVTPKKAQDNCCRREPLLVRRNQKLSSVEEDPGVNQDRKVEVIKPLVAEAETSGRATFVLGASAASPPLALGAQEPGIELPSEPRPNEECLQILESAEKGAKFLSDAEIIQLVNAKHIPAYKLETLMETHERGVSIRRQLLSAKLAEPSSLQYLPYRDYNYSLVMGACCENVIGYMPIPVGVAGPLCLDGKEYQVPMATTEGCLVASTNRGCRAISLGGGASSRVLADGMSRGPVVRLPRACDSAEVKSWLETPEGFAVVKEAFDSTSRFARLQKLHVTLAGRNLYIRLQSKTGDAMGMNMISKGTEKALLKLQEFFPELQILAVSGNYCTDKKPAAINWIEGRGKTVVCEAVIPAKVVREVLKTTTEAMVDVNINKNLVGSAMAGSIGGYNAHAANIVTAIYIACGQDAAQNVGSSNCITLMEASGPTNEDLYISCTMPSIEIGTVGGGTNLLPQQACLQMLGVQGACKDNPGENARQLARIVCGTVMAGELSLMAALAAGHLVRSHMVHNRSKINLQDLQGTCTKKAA
Put plainly: Inhibition of enzyme activity in a rat hepatic microsomal HMG-CoA reductase at 100 uM.

For assay [2], the target named is T1, 3-hydroxy-3-methylglutaryl-coenzyme A reductase (Rattus norvegicus). Kind of assay: Inhibition of enzyme activity in a rat hepatic microsomal HMG-CoA reductase at 100 uM; IA means inactive.
For assay [3] the target is unchanged. Put plainly: Inhibition of enzyme activity in a rat hepatic microsomal HMG-CoA reductase at 100 uM IA means inactive.

Compound `CC(C)[C@@H](O)C(=O)NCCC(=O)NCCSCCC(O)CC(=O)O` (stereo partly drawn) displayed an inhibition in assay [1] of 24%. In the case of `CC(C)[C@@H](O)C(=O)NCCC(=O)NCCSCC(O)CC(O)CC(=O)O` (stereo partly drawn), in assay [2], the result was inactive. Turning to `CC(C)[C@@H](O)C(=O)NCCC(=O)NCCSCC(=O)CC(O)CC(=O)O` (stereo partly drawn), in assay [3], the outcome was inactive.

For orientation: inhibition means the share of the control response that was lost under treatment. Read a high inhibition as strong suppression.
